According to article PMC10845951, “Characterization of a selective, iron-chelating antifungal compound that disrupts fungal metabolism and synergizes with fluconazole” (Microbiology Spectrum, 2024):

Assays:
HEK-293 cells = assay: CellTiter-Glo assay for human cells; type: cell-based; conditions: HEK293, HEK-293, 24 h
Experimental: (§1) HEK-293 and HS-5 cells were stored in liquid nitrogen, in freezing medium [50% Dulbecco’s Modified Eagle’s Medium (DMEM), 40% fetal bovine serum, and 10% DMSO] for long-term storage. For experimental use, the cells were thawed and then cultured using DMEM containing 10% […] and 1% penicillin/streptomycin.
(§2) The 1:1 serial dilutions of the compounds were performed in 96-well plates to obtain a final concentration range (three technical replicates each) equivalent to 0.781, 1.562, 3.125, 6.25, 12.5, 25, 50, and 100 µM. […] The plates were placed inside plastic bags to prevent evaporation and incubated at 37°C, 5% CO2 for 24 h. One hundred microliters of CellTiter-Glo 2.0 (Promega, G9243) was added to each well and then measured for luminescence using a Synergy 2 Gen 5 plate reader from BioTek.

HS-5 cells = assay: CellTiter-Glo assay for human cells; type: cell-based; conditions: HS5, HS-5, 24 h
Experimental: as §1, §2

[1] = test system: Aft1/2 target genes in aft1Δ S. cerevisiae; assay: RT-qPCR of Aft1/2 target genes in aft1Δ strain; type: cell-based, Saccharomyces cerevisiae; conditions: 10 µM, 24 h
Experimental: WT and […] cells were grown overnight in complete supplement mixture (CSM). […] After 24 h of incubation, cells were collected, and total RNA purification, reverse transcription, and RT-qPCR were performed as previously described with minor modifications ([59], [66]). Briefly, total RNA was purified using the RNeasy Mini Kit (74104, Qiagen), and reverse transcription was performed using the QuantiTect Reverse Transcription Kit (205311, Qiagen). RT-qPCR experiments were done using the HOT FIREPol EvaGreen qPCR Mix (08-36-00001-10, Solis Biodyne) and a LightCycler 96 System (Roche). Expression of the 5S gene was used as a control. The primers used in RT-qPCR experiments are as follows: […]

C. glabrata cells [2] = assay: ROS assay (H2DCF-DA fluorescence); type: cell-based, Candida glabrata; conditions: 30 µM
C. glabrata cells [3] = assay: CellTiter-Glo assay in Candida (relative ATP levels); type: cell-based, Candida glabrata; conditions: 0.625, 2.5, 10 µM; 1, 3, 6, 24 h
Experimental: The samples were incubated for 24 h at 30°C and then measured for OD600. Equal number of cells were harvested in each time point according to an OD600 of 0.1–0.4 and then centrifuged at 7000 rpm for 5 minutes to remove the supernatant. The cell pellets were resuspended in 100-µL YNB −iron and then transferred to a 96-well plate. Finally, the samples were treated with 100-µL CellTiter-Glo and then measured for luminescence using a plate reader.

[4] = test system: C. glabrata WT (10028) cells; assay: XTT metabolic assay; type: cell-based, Candida glabrata; conditions: 0.625, 2.5, 10 µM; 6 and 24 h
C. albicans WT = conditions: Candida albicans, 24 h, read-out: C. albicans WT Inhibition (%)

Structure (SMILES): c1ccc(-c2cccc(-c3ccccn3)n2)nc1 [2,2′:6′,2′′-terpyridine]
- EC50 (HEK-293 cells): 37.1 ± 6.94 µM
- EC50 (HS-5 cells): 28.7 ± 8.32 µM
- transcriptional responses after deletion of AFT1 [1]: attenuated the transcriptional responses
- ROS formation (C. glabrata cells [2]; 3 or 6 h): no ROS formation could be detected
- ROS formation (C. glabrata cells [2]; 24 h): significant ROS production
- relative ATP levels (luminescence) (C. glabrata cells [3]): concentration- and time-dependent reduction in luminescence
- reduction of XTT (mitochondrial activity) [4]: significantly inhibited the reduction of XTT
- inhibition at 1 µM (C. albicans WT): -6.82%
- inhibition at 2 µM (C. albicans WT): -0.43%
- inhibition at 3 µM (C. albicans WT): 1.52%
- inhibition at 4 µM (C. albicans WT): 7.25%
- inhibition at 5 µM (C. albicans WT): 9.76%
- inhibition at 10 µM (C. albicans WT): 79.1%
